According to article PMC2674329 (The Journal of steroid biochemistry and molecular biology, 2008):
Where two headings read alike, the source gives them in different places.

Assays:
Format in all cases: biochemical
[1] = biological target: T1, human placental cytosolic COMT (Homo sapiens, UniProt P21964); settings: for Km: read-out: KM of the substrate for O-methylation
T1 sequence (P21964 1-221 isoform P21964-2): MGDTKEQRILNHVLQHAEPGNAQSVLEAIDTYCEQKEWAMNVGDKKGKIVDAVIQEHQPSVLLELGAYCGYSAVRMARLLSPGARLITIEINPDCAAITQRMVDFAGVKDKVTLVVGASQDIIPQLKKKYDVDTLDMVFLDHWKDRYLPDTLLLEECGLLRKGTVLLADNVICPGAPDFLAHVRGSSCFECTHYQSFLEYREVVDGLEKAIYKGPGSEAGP

[2] = biological target: T2, human liver cytosolic COMT (Homo sapiens, UniProt P21964)
T2 sequence (P21964 1-221 isoform P21964-2): T1 sequence (P21964 1-221 isoform P21964-2)

[3] = biological target: T3, human liver and placental cytosolic COMT (Homo sapiens, UniProt P21964)
T3 sequence (P21964 1-221 isoform P21964-2): T1 sequence (P21964 1-221 isoform P21964-2)

[4] = range over liver and placental samples (summary)

C[C@]12CC[C@@H]3c4cc(O)c(O)cc4CC[C@H]3[C@@H]1CC[C@@H]2O [2-OH-E2, 2-hydroxyestradiol, reference compound]
VMAX of the substrate for O-methylation ([1]; HP17C (no inhibitor)): 2274 pmol/mg protein/min
VMAX of the substrate for O-methylation ([1]; HP18C (no inhibitor)): 4815 pmol/mg protein/min
VMAX of the substrate for O-methylation ([1]; HP20C (no inhibitor)): 1650 pmol/mg protein/min
Km ([1]; HP17C (no inhibitor)): 1.3 µM
Km ([1]; HP18C (no inhibitor)): 1 µM
Km ([1]; HP20C (no inhibitor)): 0.7 µM

C[C@]12CC[C@@H]3c4ccc(O)c(O)c4CC[C@H]3[C@@H]1CC[C@@H]2O [4-OH-E2, 4-hydroxyestradiol, reference compound]
VMAX of the substrate for O-methylation ([1]; HP17C (no inhibitor)): 1827 pmol/mg protein/min
VMAX of the substrate for O-methylation ([1]; HP18C (no inhibitor)): 1918 pmol/mg protein/min
VMAX of the substrate for O-methylation ([1]; HP20C (no inhibitor)): 759 pmol/mg protein/min
Km ([1]; HP17C (no inhibitor)): 3.2 µM
Km ([1]; HP18C (no inhibitor)): 4.2 µM
Km ([1]; HP20C (no inhibitor)): 3.5 µM
VMAX of the substrate for O-methylation ([2]; HL1C (no inhibitor), experiment with 1 μM chlorogenic acid): 6408 pmol/mg protein/min
VMAX of the substrate for O-methylation ([2]; HL1C (no inhibitor), experiment with 2 μM caffeic acid): 6401 pmol/mg protein/min
VMAX of the substrate for O-methylation ([2]; HL6C (no inhibitor)): 6310 pmol/mg protein/min
Km ([2]; read-out: KM of the substrate for O-methylation, HL6C (no inhibitor)): 7.1 µM

O=C(O)/C=C/c1ccc(O)c(O)c1 [Caffeic acid, caffeic acid]
VMAX, 4-OH-E2 as substrate, in presence of inhibitor ([1]; HP17C + 2 μM inhibitor, no inhibitor: 1827): 531 pmol/mg protein/min
VMAX, 4-OH-E2 as substrate, in presence of inhibitor ([1]; HP17C + 0.5 inhibitor (unit of concentration not given), no inhibitor: 1827): 1572 pmol/mg protein/min
VMAX, 2-OH-E2 as substrate, in presence of inhibitor ([1]; HP17C + 0.5 inhibitor (unit of concentration not given), no inhibitor: 2274): 2078 pmol/mg protein/min

O=C(/C=C/c1ccc(O)c(O)c1)O[C@@H]1C[C@](O)(C(=O)O)C[C@@H](O)[C@H]1O [Chlorogenic acid, chlorogenic acid]
mechanism of inhibition, O-methylation of 2-OH-E2 and 4-OH-E2 ([3]; human liver and placental COMT): mixed (competitive plus noncompetitive)
higher inhibition potency for the O-methylation of 4-OH-E2 than for the O-methylation of 2-OH-E2 ([3]; human liver or placental cytosolic COMT): 1.5 to 7 fold
IC50 values for inhibiting the methylation of 2-OH-E2 [3, 4]: 800 to 1400 nM
IC50 values for inhibiting the methylation of 4-OH-E2 [3, 4]: 200 to 800 nM
VMAX, 4-OH-E2 as substrate, in presence of inhibitor ([1]; HP18C + 0.25 μM inhibitor, no inhibitor: 1918): 1480 pmol/mg protein/min
VMAX, 2-OH-E2 as substrate, in presence of inhibitor ([1]; HP18C + 0.25 μM inhibitor, no inhibitor: 4815): 3960 pmol/mg protein/min
VMAX, 4-OH-E2 as substrate, in presence of inhibitor ([1]; HP18C + 0.5 μM inhibitor, no inhibitor: 1918): 1146 pmol/mg protein/min
VMAX, 2-OH-E2 as substrate, in presence of inhibitor ([1]; HP18C + 0.5 μM inhibitor, no inhibitor: 4815): 3648 pmol/mg protein/min
VMAX, 4-OH-E2 as substrate, in presence of inhibitor ([1]; HP20C + 0.5 μM inhibitor, no inhibitor: 759): 312 pmol/mg protein/min
VMAX, 2-OH-E2 as substrate, in presence of inhibitor ([1]; HP20C + 0.5 μM inhibitor, no inhibitor: 1650): 1311 pmol/mg protein/min
increase of KM value, 2-OH-E2 as a substrate ([1]; inhibitor at 0.25 μM): approximately 2 fold
increase of KM value, 4-OH-E2 as a substrate ([1]; inhibitor at 0.25 μM): approximately 1.2 fold
increase of KM value, 2-OH-E2 as a substrate ([1]; inhibitor at 0.5 μM): ~4 fold
increase of KM value, 4-OH-E2 as a substrate ([1]; inhibitor at 0.5 μM): approximately 2 fold
decrease of VMAX value, 2-OH-E2 as a substrate ([1]; inhibitor at 0.25 and 0.5 μM): approximately 20%
decrease of VMAX value, 4-OH-E2 as a substrate ([1]; inhibitor at 0.25 and 0.5 μM): approximately 50%
mechanism of enzyme inhibition, O-methylation of 2-OH-E2 and 4-OH-E2 ([1]; section on human placental cytosolic COMT (sentence prints human liver COMT)): mixed (competitive plus noncompetitive)
VMAX, 4-OH-E2 as substrate, in presence of inhibitor ([2]; HL1C + 1 μM inhibitor, no inhibitor: 6408): 2825 pmol/mg protein/min
VMAX, 4-OH-E2 as substrate, in presence of inhibitor ([2]; HL6C + 2 μM inhibitor, no inhibitor: 6310): 3292 pmol/mg protein/min
change of apparent KM value, O-methylation of 4-OH-E2 ([2]; inhibitor at 1 μM): slightly increased
decrease of apparent VMAX value, O-methylation of 4-OH-E2 ([2]; inhibitor at 1 μM): approximately 50%
mechanism of enzyme inhibition, O-methylation of 4-OH-E2 ([2]; inhibitor at 1 μM): primarily a noncompetitive mechanism
